Results reported in PubChem BioAssay AID1745844 (Carcinogenic Potency Database (CPDB), 2022).
The source made the active and inactive calls. The rule behind the calls is not given here.

Test system: rodent lifetime carcinogenesis bioassay, tumor incidence TD50
Experiment: carcinogenic potency in animals, long-term in vivo studies, CPDB compilation (AID 1745844)
Settings: rat, in feed

Compound: OCC(CO)(CBr)CBr
- TD50 (strain Fischer 344, males, site: kidney, lesion: tubule adenoma, dosed 12 weeks, study length 103 weeks): 970 mg/kg/day
- TD50 (strain Fischer 344, males, site: kidney, lesion: tubule adenoma, dosed 104 weeks, study length 105 weeks): 1550 mg/kg/day
- TD50 (strain Fischer 344, males, site: liver, lesion: hepatocellular adenoma + hepatoblastoma + hepatocellular carcinoma, dosed 12 weeks, study length 103 weeks): 702 mg/kg/day
- TD50 (strain Fischer 344, males, site: liver, lesion: hepatocellular adenoma + hepatoblastoma + hepatocellular carcinoma, dosed 104 weeks, study length 105 weeks): 1840 mg/kg/day
- TD50 (strain Fischer 344, males, site: lung, lesion: alveolar/bronchiolar adenoma + alveolar/bronchiolar carcinoma, dosed 12 weeks, study length 103 weeks): 52.4 mg/kg/day
- TD50 (strain Fischer 344, males, site: lung, lesion: alveolar/bronchiolar adenoma + alveolar/bronchiolar carcinoma, dosed 104 weeks, study length 105 weeks): 729 mg/kg/day
- TD50 (strain Fischer 344, males, site: lung, lesion: alveolar/bronchiolar adenoma, dosed 12 weeks, study length 103 weeks): 73.1 mg/kg/day
- TD50 (strain Fischer 344, males, site: lung, lesion: alveolar/bronchiolar carcinoma, dosed 12 weeks, study length 103 weeks): 327 mg/kg/day
- TD50 (strain Fischer 344, males, site: lung, lesion: alveolar/bronchiolar carcinoma, dosed 104 weeks, study length 105 weeks): 1300 mg/kg/day
- TD50 (strain Fischer 344, males, site: lung, lesion: squamous-cell carcinoma, dosed 12 weeks, study length 103 weeks): 484 mg/kg/day
- TD50 (strain Fischer 344, males, site: mammary gland, lesion: adenoma + fibroadenoma, dosed 104 weeks, study length 105 weeks): 262 mg/kg/day
- TD50 (strain Fischer 344, males, site: mammary gland, lesion: fibroadenoma, dosed 12 weeks, study length 103 weeks): 78.3 mg/kg/day
- TD50 (strain Fischer 344, males, site: mammary gland, lesion: fibroadenoma, dosed 104 weeks, study length 105 weeks): 275 mg/kg/day
- TD50 (strain Fischer 344, males, site: palate + tongue, lesion: squamous-cell carcinoma + squamous-cell papilloma, dosed 12 weeks, study length 103 weeks): 24 mg/kg/day
- TD50 (strain Fischer 344, males, site: palate + tongue, lesion: squamous-cell papilloma, dosed 12 weeks, study length 103 weeks): 24.6 mg/kg/day
- TD50 (strain Fischer 344, males, site: palate + tongue, lesion: squamous-cell papilloma, dosed 104 weeks, study length 105 weeks): 300 mg/kg/day
- TD50 (strain Fischer 344, males, site: palate, lesion: squamous-cell papilloma, dosed 12 weeks, study length 103 weeks): 115 mg/kg/day
- TD50 (strain Fischer 344, males, site: palate, lesion: squamous-cell papilloma, dosed 104 weeks, study length 105 weeks): 808 mg/kg/day
- TD50 (strain Fischer 344, males, site: pancreas, lesion: acinar-cell adenoma, dosed 12 weeks, study length 103 weeks): 193 mg/kg/day
- TD50 (strain Fischer 344, males, site: pancreas, lesion: acinar-cell adenoma, dosed 104 weeks, study length 105 weeks): 516 mg/kg/day
- TD50 (strain Fischer 344, males, site: pancreatic islets, lesion: islet-cell adenoma + islet-cell carcinoma, dosed 104 weeks, study length 105 weeks): 208 mg/kg/day
- TD50 (strain Fischer 344, males, site: pituitary gland, lesion: pars distalis adenoma + pars distalis carcinoma, dosed 104 weeks, study length 105 weeks): 462 mg/kg/day
- TD50 (strain Fischer 344, males, site: pituitary gland, lesion: pars distalis adenoma, dosed 12 weeks, study length 103 weeks): 67.3 mg/kg/day
- TD50 (strain Fischer 344, males, site: pituitary gland, lesion: pars distalis adenoma, dosed 104 weeks, study length 105 weeks): 493 mg/kg/day
- TD50 (strain Fischer 344, males, site: preputial gland, lesion: adenoma + carcinoma, dosed 12 weeks, study length 103 weeks): 39 mg/kg/day
- TD50 (strain Fischer 344, males, site: preputial gland, lesion: adenoma + carcinoma, dosed 104 weeks, study length 105 weeks): 793 mg/kg/day
- TD50 (strain Fischer 344, males, site: preputial gland, lesion: adenoma, dosed 12 weeks, study length 103 weeks): 22.8 mg/kg/day
- TD50 (strain Fischer 344, males, site: preputial gland, lesion: adenoma, dosed 104 weeks, study length 105 weeks): 819 mg/kg/day
- TD50 (strain Fischer 344, males, site: seminal vesicle, lesion: adenoma + carcinoma, dosed 12 weeks, study length 103 weeks): 453 mg/kg/day
- TD50 (strain Fischer 344, males, site: skin, lesion: basal-cell adenoma + basal-cell carcinoma + keratoacanthoma + squamous-cell carcinoma + squamous-cell papilloma + trichoepitheliom, dosed 104 weeks, study length 105 weeks): 166 mg/kg/day
- TD50 (strain Fischer 344, males, site: skin, lesion: basal-cell adenoma + basal-cell carcinoma + trichoepithelioma, dosed 104 weeks, study length 105 weeks): 720 mg/kg/day
- TD50 (strain Fischer 344, males, site: skin, lesion: basal-cell adenoma + keratoacanthoma + squamous-cell carcinoma + squamous-cell papilloma + trichoepithelioma, dosed 12 weeks, study length 103 weeks): 16.9 mg/kg/day
- TD50 (strain Fischer 344, males, site: skin, lesion: basal-cell adenoma + trichoepithelioma, dosed 12 weeks, study length 103 weeks): 64.6 mg/kg/day
- TD50 (strain Fischer 344, males, site: skin, lesion: basal-cell adenoma, dosed 12 weeks, study length 103 weeks): 82.3 mg/kg/day
- TD50 (strain Fischer 344, males, site: skin, lesion: basal-cell adenoma, dosed 104 weeks, study length 105 weeks): 1530 mg/kg/day
- TD50 (strain Fischer 344, males, site: skin, lesion: keratoacanthoma, dosed 12 weeks, study length 103 weeks): 42.5 mg/kg/day
- TD50 (strain Fischer 344, males, site: skin, lesion: keratoacanthoma, dosed 104 weeks, study length 105 weeks): 235 mg/kg/day
- TD50 (strain Fischer 344, males, site: skin, lesion: squamous-cell carcinoma + squamous-cell papilloma, dosed 12 weeks, study length 103 weeks): 21.7 mg/kg/day
- TD50 (strain Fischer 344, males, site: skin, lesion: squamous-cell carcinoma + squamous-cell papilloma, dosed 104 weeks, study length 105 weeks): 1130 mg/kg/day
- TD50 (strain Fischer 344, males, site: skin, lesion: squamous-cell papilloma, dosed 12 weeks, study length 103 weeks): 46.2 mg/kg/day
- TD50 (strain Fischer 344, males, site: skin, lesion: squamous-cell papilloma, dosed 104 weeks, study length 105 weeks): 1130 mg/kg/day
- TD50 (strain Fischer 344, males, site: subcutaneous tissue, lesion: fibroma, dosed 12 weeks, study length 103 weeks): 111 mg/kg/day
- TD50 (strain Fischer 344, males, site: subcutaneous tissue, lesion: fibroma, dosed 104 weeks, study length 105 weeks): 271 mg/kg/day
- TD50 (strain Fischer 344, males, site: subcutaneous tissue, lesion: fibrosarcoma + fibroma + sarcoma, dosed 12 weeks, study length 103 weeks): 87.3 mg/kg/day
- TD50 (strain Fischer 344, males, site: subcutaneous tissue, lesion: fibrosarcoma + fibroma + sarcoma, dosed 104 weeks, study length 105 weeks): 221 mg/kg/day
- TD50 (strain Fischer 344, males, site: subcutaneous tissue, lesion: fibrosarcoma + sarcoma, dosed 12 weeks, study length 103 weeks): 654 mg/kg/day
- TD50 (strain Fischer 344, males, site: subcutaneous tissue, lesion: fibrosarcoma + sarcoma, dosed 104 weeks, study length 105 weeks): 1080 mg/kg/day
- TD50 (strain Fischer 344, males, site: subcutaneous tissue, lesion: sarcoma, dosed 104 weeks, study length 105 weeks): 1550 mg/kg/day
- TD50 (strain Fischer 344, males, site: testis, lesion: interstitial-cell adenoma, bilateral + interstitial-cell adenoma, dosed 12 weeks, study length 103 weeks): 5.94 mg/kg/day
- TD50 (strain Fischer 344, males, site: testis, lesion: interstitial-cell adenoma, bilateral + interstitial-cell adenoma, dosed 104 weeks, study length 105 weeks): 66.5 mg/kg/day
- TD50 (strain Fischer 344, males, site: thyroid gland, lesion: c-cell adenoma + c-cell carcinoma, bilateral + c-cell carcinoma, dosed 104 weeks, study length 105 weeks): 675 mg/kg/day
- TD50 (strain Fischer 344, males, site: thyroid gland, lesion: c-cell carcinoma, bilateral + c-cell carcinoma, dosed 104 weeks, study length 105 weeks): 1920 mg/kg/day
- TD50 (strain Fischer 344, males, site: thyroid gland, lesion: follicular-cell adenoma + follicular-cell carcinoma, dosed 12 weeks, study length 103 weeks): 82.6 mg/kg/day
- TD50 (strain Fischer 344, males, site: thyroid gland, lesion: follicular-cell adenoma + follicular-cell carcinoma, dosed 104 weeks, study length 105 weeks): 629 mg/kg/day
- TD50 (strain Fischer 344, males, site: thyroid gland, lesion: follicular-cell adenoma, dosed 12 weeks, study length 103 weeks): 132 mg/kg/day
- TD50 (strain Fischer 344, males, site: thyroid gland, lesion: follicular-cell carcinoma, dosed 104 weeks, study length 105 weeks): 1110 mg/kg/day
- TD50 (strain Fischer 344, males, site: tongue, lesion: squamous-cell papilloma, dosed 12 weeks, study length 103 weeks): 30.8 mg/kg/day
- TD50 (strain Fischer 344, males, site: tongue, lesion: squamous-cell papilloma, dosed 104 weeks, study length 105 weeks): 500 mg/kg/day
- TD50 (strain Fischer 344, males, site: urinary bladder, lesion: transitional-cell carcinoma + transitional-cell papilloma, dosed 12 weeks, study length 103 weeks): 223 mg/kg/day
- TD50 (strain Fischer 344, males, site: urinary bladder, lesion: transitional-cell carcinoma + transitional-cell papilloma, dosed 104 weeks, study length 105 weeks): 2320 mg/kg/day
- TD50 (strain Sprague-Dawley Spartan, females, site: any site (literature study), lesion: several types, types named in the paper, dosed 104 weeks, study length 104 weeks): 1730 mg/kg/day (inactive)
- carcinogen call (strain Sprague-Dawley Spartan, females, site: liver, lesion: hepatocellular carcinoma, dosed 104 weeks, study length 104 weeks): negative (inactive)
- TD50 (strain Sprague-Dawley Spartan, females, site: liver, lesion: hepatocellular hyperplastic nodule, dosed 104 weeks, study length 104 weeks): 2550 mg/kg/day (inactive)
- carcinogen call (strain Sprague-Dawley Spartan, males, site: any site (literature study), lesion: several types, types named in the paper, dosed 104 weeks, study length 104 weeks): negative (inactive)
- carcinogen call (strain Sprague-Dawley Spartan, males, site: liver, lesion: hepatocellular carcinoma, dosed 104 weeks, study length 104 weeks): negative (inactive)
- carcinogen call (strain Sprague-Dawley Spartan, males, site: liver, lesion: hepatocellular hyperplastic nodule, dosed 104 weeks, study length 104 weeks): negative (inactive)
